Laboratory results reported in patent US9243281B2, “Neuroprotective chemicals and methods for identifying and using same” (Board of Regents of The University of Texas System, priority 2013, dated 2016).

Key:
Type in all cases: cell-based
NAD in U2OS cells = assay: intracellular NAD abundance by LC-MS/MS; conditions: U2OS cells exposed to sub-lethal doxorubicin
Protocol: FIGS. 5A-5C. Active variants of P7C3 compensate NAD exhaustion induced by doxorubicin. (FIG. 5A) U2OS cells were treated with the indicated concentration of P7C3-A20. Cells were harvested and NAD metabolites were measured by LC-MS/MS. Abundance of NAD was normalized relative to total metabolites (Experimental Procedures). The data are represented as the mean±SD of experimental duplicates. […] Cells were grown in 96-well plates and treated with the indicated concentrations of P7C3-A20, P7C3-S243, P7C3-S6 or P7C3-S117 together with 0.5 μM doxorubicin for 45 h. Cellular NAD abundance was determined by NAD/NADH Glo assay kit. […] The activities in both assays are represented by (Sinf−S0)/AC50 in dose response curves of test compounds.
Doxorubicin is a DNA-damaging toxin known to activate the poly ADP-ribose polymerase (PARP) enzyme as a central feature of DNA repair (Pacher et al., 2002) (Munoz-Gamez et al., 2009). […] U2OS cells exposed to sub-lethal levels of doxorubicin were lysed in methanol, cleared by centrifugation and subjected to metabolite analysis by mass spectrometry. These methods allow for the simultaneous, quantitative analysis of hundreds of intracellular metabolites (Tu et al., 2007) (Wang et al., 2009). […] The mass spectrometry methods used to quantitate metabolite levels measured NAD relative to hundreds of other intracellular metabolites. […]

[1] = test system: NAD levels in doxorubicin-treated U2OS cells; assay: NAD rebound assay in doxorubicin-treated cells (NAD/NADH Glo); conditions: 0.5 μM doxorubicin 45 h
Protocol: FIG. 12. Five-point dose response curves (DRC) of all tested compounds in NAD rebound assay. […] Cellular NAD abundance was determined by NAD/NADH Glo assay kit.
Each chemical variant of P7C3 was co-incubated with doxorubicin on cultured U2OS cells at five doses (0.03 uM, 0.1 uM, 0.3 uM, 1 uM and 3 uM). After 45 hrs incubation, cells were assayed for intracellular levels of NAD (FIG. 12).
Assay was performed following the manufacturer's protocol. NAD/NADH-Glo reagent contains the NAD Cycling Enzyme that converts NAD+ to NADH. In the presence of NADH, the enzyme reductase reduces a proluciferin reductase substrate to form luciferin. Cells were grown in 96- or 384-well plates. 50 μl or 15 μl of NAD/NADH-Glo™ Detection Reagent were added to each well. The resulting luminescence signals were measured by Tecan plate reader or EnVison multimode plate reader (Perkin Elmer).

U2OS cells [2] = assay: western blotting of caspase-3 activation and γ-H2AX after doxorubicin
Protocol: FIGS. 9A-9B. […] (FIG. 9A) U2OS cells were treated with increasing concentrations of P7C3-A20 for 2 h prior to exposure to 0.5 μM doxorubicin for another 2 h. Cells were harvested and subjected to western blotting with the DNA damage marker, γ-H2AX. Actin was served as loading control. (FIG. 9B) U2OS cells were treated with P7C3-A20 and doxorubicin for the indicated time. Caspase-3 activation was determined by western blotting. Caspase-3 cleavage was observed when treated with doxorubicin alone at 60 h, but was prevented in the presence of P7C3-A20.
(§1) Progress on studies aimed towards resolving the mode of action of P7C3 has been hampered by the fact that we have been limited to studies of drug action in living animals. Our standard assay of neurogenesis requires, under optimal conditions, a one month turn-around from the synthesis of a new derivative to a score for its neuroprotective activity. In efforts to break this logjam, we tested whether P7C3 might have cell-protective activity to any of eight generic toxins.

[3] = test system: nicotinamide salvage pathway in U2OS cells; assay: nicotinamide flux analysis with 14C-labeled nicotinamide (TLC); conditions: 0.5 μM doxorubicin 48 h, then 6 h 14C-nicotinamide
Protocol: FIGS. 6A-6B. P7C3-A20 enhances the flux of nicotinamide through the salvage pathway. (FIG. 6A) Cells were pre-treated with 0.5 μM doxorubicin for 48 hours, followed by 6 hours treatment with ^14C-nicotinamide in the presence of the indicated amount of P7C3-A20. Metabolites were extracted and analyzed by thin layer chromatography. (FIG. 6B) Quantification of the relative intensities of NAD and NMN from the thin layer chromatogram.
NAMPT is the rate limiting enzyme in the salvage pathway whereby cells sequentially convert nicotinamide into nicotinamide […] mononucleotide (NMN) and NAD (Preiss and Handler, 1958). If active variants of P7C3 indeed bind to the NAMPT dimer in a manner fostering its activity, then these compounds should enhance the flux of nicotinamide through the salvage pathway. To test this hypothesis, ^14C-labeled nicotinamide was administered to cultured U2OS cells. Six hours later, cells were lysed in perchloric acid and cleared by centrifugation so that soluble materials could be separated by thin layer chromatography (TLC) followed by autoradiography.
Logarithmically growing cells cultured in 6-well plates were treated with doxorubicin (0.5 μM) for 48 hours. […] Afterwards, the screen was scanned using the Typhoon scanner, and the ^14C-labeled compounds were quantified using Image J.

U2OS cells [4] = assay: cell survival assay with seven other toxins; conditions: 5 μM P7C3-A20 2 h prior to toxins for 72 h
Protocol: FIG. 8. P7C3A20 protects U2OS cells from doxorubicin-mediated toxicity. U2OS cells were treated with 5 μM P7C3-A20 for 2 h prior to incubation with the indicated concentrations of eight toxins for 72 h.
as §1
Cell survival assay was performed in 96-well plates using CellTiter-Glo Luminescent Cell Viability Assay kit (Promega) that measures cellular ATP content. The CellTiter-Glo reagent was diluted by adding 2 volumes of PBS containing 1% Triton X-100. 50 μl of diluted reagent was directly added to 100 μl of cell culture medium per well. […] Luminescence was recorded by Tecan […]luor Plus reader (Tecan). Cell survival was presented as the percentage of viable cells compared with untreated control, and mean±SD was calculated from duplicates. The dox:tox assay of P7C3 analogs was carried out in the HTS Core (University of Texas Southwestern Medical Center) using the EnVison multimode plate reader (Perkin Elmer).

Q: Which results are given for COc1cccc(NCC(F)Cn2c3ccc(Br)cc3c3cc(Br)ccc32)c1 (stereo not drawn) [S10]?
A: NAD level relative to total metabolites (NAD in U2OS cells): dose-dependent replenishment of NAD; rebound of NAD levels (NAD/NADH-Glo kit) [1]: rebound of NAD levels; DNA damage response (phosphorylation of H2AX) (U2OS cells [2]; 0.5 μM doxorubicin): not DNA damage response; doxorubicin-induced apoptosis (caspase-3 activation) (U2OS cells [2]; co-administration with doxorubicin): blocked doxorubicin-induced apoptosis; conversion of radiolabeled nicotinamide into NMN and NAD [3]: enhanced conversion of radiolabeled nicotinamide into NMN and NAD; protection from seven other toxins (U2OS cells [4]): no evidence of drug-mediated protection
